Experimental data taken from patent US20250339391A1, “METHODS FOR EFFECTIVE MANAGEMENT OF PAIN” (South Rampart Pharma, Inc., priority 2024, published 2025).

System: Beagle dogs
Settings: dog, in vivo
Description: 8) A 28-day Oral Toxicity Study of SRP-001 in Beagle Dogs with a 14-day Recovery (GLP study) SRP-001 was supplied by Olon Ricerca Bioscience as an off-white powder. The test article was then prepared into dosing suspensions for oral administration via gavage (Calvert Labs/Altasciences, Scott Township, PA USA). Thirty-two experimentally naïve Beagle dogs (16 males and 16 females), 8-9 months old and weighing 6.7-10.5 kg for males and females at the outset of the study, were administered 0, 165, 330, or 495 mg/kg/d. Animals were dosed three times daily (3-5 h between doses) for 28 consecutive days. Prior to this dosing schedule, the dosing was initiated with once daily dosing at 0, 100, 300, or 900 mg/kg at a dose volume of 5 to 10 ml/kg. Due to adverse clinical signs noted following dosing of all groups at a dose volume of 10 ml/kg, dosing of the animals was suspended on day 2 for males and day 1 for females. The study was restarted with T.I.D. dosing in lower dose volume to reduce vehicle-related toxicity.
In-life data from the initial start of the study using once daily dosing were not included in the report but are maintained in the study file. Following the restart of the study, the study was conducted as follows. Mortality/morbidity was performed twice daily and once prior to the scheduled sacrifice. Animals were observed prior to each dose administration and 1-3 h after each dose administration. Animals were also observed once daily on non-dosing days and once prior to scheduled sacrifice. Body weights were recorded prior to randomization/selection, prior to the first dose administration on day 1 and weekly thereafter. Food consumption was determined daily. Ophthalmology examinations and electrocardiograms were performed before treatment initiation and during the last week of dosing. Blood for evaluation of hematology, coagulation and clinical chemistry and urine for urinalysis was collected prior to treatment initiation and on days 29 and 43. Blood for toxicokinetic evaluation was collected at selected timepoints on days 1 and 28. All surviving animals were sacrificed on day 29 or day 43. Selected tissues were harvested at necropsy, selected organs weighed, and selected tissues evaluated microscopically.

## CCN(CC)C(=O)c1ccccc1S(=O)(=O)NCC(=O)Nc1ccc(O)cc1 [SRP-001, N,N-diethyl-2-[[2-(4-hydroxyanilino)-2-oxo-ethyl]sulfamoyl]benzamide]
both, Beagle, 14 d
  reversibility after 14-d recovery: nearly all SRP-001-related changes observed on day 29 were reversible
both, Beagle, 28 d
  no-adverse-effect level: 330 mg/kg/day
both, Beagle, po, 28 d
  doses without treatment-related adverse effects: up to 330 mg/kg/day
  hematology finding: regenerative anemia
